This is an account of results in article PMC8942850, “Boron clusters as broadband membrane carriers” (Nature, 2022).

Read-outs that look alike come from different tables or passages of the source. Bounds are passed on as bounds.

The subject of data set [1] is Escherichia coli Top10 strain. Nature of the data set: Kanamycin A delivery in E. coli (OD570 growth). The format is cell-based. As to conditions: for mean_norm_OD570: LB, 37 °C, 18 h, mean of triplicate. As for the experimental part: As a proof-of-principle, we investigated its potential to reduce the minimum inhibitory concentration of kanamycin A, an aminoglycoside antibiotic. Aminoglycosides function by binding to the bacterial 30S ribosomal subunit; consequently, effective passage through the cell wall and plasma membrane is essential for aminoglycosides to reach their intracellular targets. […]
A preculture of E. coli Top10 cells was incubated overnight in LB medium with 50 µg ml^−1 streptomycin sulfate. […] After 18 h, the optical density at 570 nm, as an indicator of bacterial growth, was measured with a Tecan Infinite F200Pro microplate reader. Data were normalized for each concentration of B12Br12^2− relative to the control condition without antibiotic.
Solid points indicate mean ± s.d. of three technical replicates. […] Cross-bars indicate mean ± s.d. of three independent experiments (two with technical triplicates, one with technical duplicates); values obtained in each experiment are represented by different shapes. c, Viability of HeLa cells after incubation with different doses of MMAF in the presence of 0, 5 and 10 μM B12Br12^2−. Solid points indicate mean ± s.d. of three technical replicates. d, Corresponding IC50 values of MMAF. […] Source data

Data set [2] is described as follows: HPTS/DPX transport assay in zwitterionic EYPC vesicles. The format is in vitro ADME. More on the design: key to Et: Et = Ymax × (pEC50/ft); pEC50 = −log EC50. As for the experimental part:
The well-established HPTS/DPX assay, which uses 8-hydroxypyrene-1,3,6-trisulfonate (HPTS) and p-xylene-bis-pyridinium (DPX), was implemented to monitor peptide-transport activation (Fig. 2a). […] A surfactant (Triton X-100) was added at the end of the experiment (t = 600 s) to release all vesicle content and normalize the fluorescence intensity data.
Fig. 2 Carrier activity obtained from the HPTS/DPX assay. a, Schematic representation of the transport of otherwise impermeable analytes facilitated by superchaotropic cluster anions with encapsulated HPTS/DPX probe/quencher pair used for signalling. […] Concentrations of carrier and cargo, when fixed, were 40 and 20 µM, respectively, unless explicitly stated. Source data
A thin lipid film was prepared by evaporating a lipid solution with a stream of nitrogen and then dried in vacuo overnight.
Fluorescence intensities were normalized to fractional emission as I(t) = (It − I0)/(I∞ − I0), where I0 = It before cluster addition and I∞ = It after lysis.
In the activator measurements, in which different activators were tested with the same cargo, the activator efficiency (Ea) is determined from their ability to activate the transport of an impermeable cargo molecule and is characterized by Ymax, its maximal activity, and EC50, the effective activator concentration. A potent activator reaches high Ymax at low EC50. To reflect both factors, the activator efficiency is defined as Ea = Ymax × (pEC50/fa), where pEC50 is the negative logarithm of EC50.
In the transport measurements, in which different types of cargo were tested with the same activator, the transport efficiency (Et) reports on the sensitivity of the cargo for being transported and is described by Ymax, the maximal activity, and EC50, the effective cargo concentration. An easily accessible cargo reaches high Ymax at low EC50. The transport efficiency is defined as a composition of both parameters according to Et = Ymax × (pEC50/ft), where pEC50 is the negative logarithm of EC50.
Extended Data Fig. 3 Transport activity. a, Transport activity, Y, in EYPC⊃HPTS/DPX vesicles as a function of cluster concentration at constant cargo concentration (WR7, 20 µM). b, Transport activity, Y, for B12Br12^2− (40 µM) in EYPC⊃HPTS/DPX vesicles as a function of the concentration of different cargo types; red lines correspond to the resulting fit with the Hill equation. Source data

The subject of data set [3] is HeLa cells. Nature of the data set: Phalloidin-TRITC delivery, confocal imaging of F-actin staining. The format is cell-based. As to conditions: living HeLa cells, HKR buffer, 3 h, 500 nM cargo concentration. As for the experimental part:
(§1) Representative images of two biological replicates. […] Scale bars, 50 μm.
Cells were incubated with 7 µM phalloidin-TRITC (red) in the absence (left) and presence of 50 µM ^AcR8 (middle) or 50 µM of B12Br12^2− cluster (right) in HKR buffer for 3 h, subsequently stained with Hoechst (blue), washed with DMEM without phenol red, and imaged by confocal fluorescence microscopy; bright-field images in insets. Micrographs from each cell line were processed independently, experiments were performed twice. e, MTT viability assay of the corresponding cell lines (HeLa, GT1-7, ARPE-19 and A549, from left to right) at different concentrations (0, 25, 75, 250, and 500 µM) of B12Br12^2− (black) or ^AcR8 (red); data are mean ± s.d. of five measurements. f, Confocal images of HeLa cells after incubation with 500 nM phalloidin-TRITC and different concentrations B12Br12^2−; the images correspond to those of Fig. 4 in the main text, but are shown with increased brightness to facilitate observation of the actin filaments. Representative images of two biological replicates. All scale bars are […], except for panel f (50 µm). Source data

For data set [4] the following is noted: gold standard in the field; cited from earlier work. The text has this: U-tube transport experiments, across a bulk chloroform layer, unambiguously confirmed that the brominated cluster served as a non-covalent carrier across a hydrophobic bulk barrier (Extended Data Fig. 2a, b). To quantitatively characterize the transport efficiency of the new cluster carriers, the normalized fluorescence responses in the vesicle experiments (Fig. 2b) were plotted against cluster concentration to produce dose–response curves (Fig. 2c and Extended Data Fig. 3a). We extracted, by Hill analysis, the salient parameters: the maximal activity (Ymax), the concentration needed to achiev ...

Data set [5] deals with HeLa cells. Nature of the data set: Confocal imaging of TAMRA-R8 / TAMRA-D-R8 / TAMRA uptake in living cells. As to conditions: HeLa, 1, 10 or 50 µM TAMRA, 10 µM B12Br12^2− in HKR, 1 h.
From the text: as §1
Representative images of two biological replicates. […] Source data
(1 picture or pasted object on this page, not shown here)

Regarding kanamycin A, the mean_norm_OD570 in data set [1] (Kanamycin 3 µg/mL, B12Br12 0, normalised to no-antibiotic control) is on record as 68.2744; in data set [1] (Kanamycin 3 µg/mL, B12Br12 500 mM, normalised to no-antibiotic control at same B12Br12), 9.048; in data set [1] (Kanamycin 3 µg/mL, B12Br12 750 mM, normalised to no-antibiotic control at same B12Br12) it was 0.7906; in data set [1] (Kanamycin 3 µg/mL, B12Br12 1000 mM, normalised to no-antibiotic control at same B12Br12), 0.4633; in data set [1] (Kanamycin 2.5 mg/mL, B12Br12 0 (so in the source), normalised to no-antibiotic control) it was 70.6541; in data set [1] (Kanamycin 2.5 mg/mL, B12Br12 500 mM (so in the source), normalised to no-antibiotic control at same B12Br12) it was 24.7877. Moreover, the mean_norm_OD570 in data set [1] (Kanamycin 2.5 mg/mL, B12Br12 750 mM (so in the source), normalised to no-antibiotic control at same B12Br12) amounted to 9.686; in data set [1] (Kanamycin 2.5 mg/mL, B12Br12 1000 mM (so in the source), normalised to no-antibiotic control at same B12Br12), 14.0089; in data set [1] (Kanamycin 3.5 mg/mL, B12Br12 0 (so in the source), normalised to no-antibiotic control) it was 58.481; in data set [1] (Kanamycin 3.5 mg/mL, B12Br12 500 mM (so in the source), normalised to no-antibiotic control at same B12Br12), 0.383; in data set [1] (Kanamycin 3.5 mg/mL, B12Br12 750 mM (so in the source), normalised to no-antibiotic control at same B12Br12), 0.005219; in data set [1] (Kanamycin 3.5 mg/mL, B12Br12 1000 mM (so in the source), normalised to no-antibiotic control at same B12Br12), 0.103. Besides, the “E. coli viability, absence of cluster” value in data set [1] (kanamycin A 3.5 µg ml^−1, no B12Br12^2−) is given as 60%. Moreover, the “E. coli viability, presence of the cluster carrier” value in data set [1] (kanamycin A 3.5 µg ml^−1 with B12Br12^2−) is given as below 1%. The compound further showed an Et transport efficiency in data set [2] (Et = Ymax × (pEC50/ft), ft = 19.8 so that WR7 equals 10.0, B12Br12^2− (40 μM) carrier, 5% error (SD) unless stated) of 1.7 ± 0.2. Besides, in data set [2] (Fig.2 d, per analyte (cargo)), the Et was 1.7. In addition, the “Ymax (%) maximal activity, transport of cargo” value in data set [2] (cargo concentration varied, B12Br12^2− (40 μM) as common carrier, EYPC⊃HPTS/DPX vesicles, 13 µM lipid, 10 mM Tris, 107 mM NaCl, pH 7.4, HPTS fluorescence, Hill analysis, 10% error (SD) unless stated, n.t. = no detectable transport) is on record as 54 ± 6%. Besides, the EC50 in data set [2] (read-out: EC50 (μM) effective cargo concentration to reach 50% of Ymax, cargo concentration varied, B12Br12^2− (40 μM) as common carrier, EYPC⊃HPTS/DPX vesicles, pH 7.4, Hill analysis, 10% error (SD) unless stated, n.t. = no detectable transport) was 235 ± 70 µM.

As for Phalloidin-TRITC, in the data set on HeLa cells [3], the “F-actin staining after B12Br12^2−-triggered membrane passage” value was “excellent staining of the F-actin target”.

Regarding `O=C(O)CCCc1ccc2ccc3cccc4ccc1c2c34` [Pyrenebutyrate (1), pyrenebutyrate, reference compound], the Ea activator efficiency in data set [2] (Ea = Ymax × (pEC50/fa), fa = 20.6, WR7 (20 μM) cargo, 10% error (SD)) is listed as 4.9; in data set [4], “≈ 5”. Also, the “Activation of oligolysine (WK7) membrane transport” value in data set [2] (WK7 cargo, HPTS/DPX assay) was “fails to trigger any signal”. Besides, the “Ymax (%) maximal activity, carrier activity” value in data set [2] (carrier concentration varied, WR7 (20 μM) as common cargo, EYPC⊃HPTS/DPX vesicles, 13 µM lipid, 10 mM Tris, 107 mM NaCl, pH 7.4, HPTS fluorescence, Hill analysis, 10% error (SD) unless stated, n.a. = no detectable activity, d.l. = dye leakage, no determination possible) is listed as 100%. Besides, the “Activity as activator for the newly introduced targets” value in data set [2] (membrane-impermeable analytes (100 µM), HPTS/DPX assay) is “no activity”. In addition, in data set [2] (read-out: EC50 (μM) effective carrier concentration to reach 50% of Ymax, carrier concentration varied, WR7 (20 μM) as common cargo, EYPC⊃HPTS/DPX vesicles, pH 7.4, Hill analysis, 10% error (SD) unless stated, n.a. = no detectable activity, d.l. = dye leakage, no determination possible), the EC50 was 103 µM.

As for TAMRA [reference compound], the “Transport of non-conjugated dye by B12Br12^2−” value with HeLa cells [5] was “not carried”.
